Assays:
Assay in all cases: Color, fluorescence and growth of colonies on Columbia medium with nitroreductase substrate
Format in all cases: cell-based
[1] = tested on: Streptococcus pyogenes NCTC 8 306; design: key to Growth: NG: no growth; 0.5: low growth; 1: moderate growth; 2: good growth; key to Fluo.: fluorescence of the colonies / Col.: color of the colonies: —: no color/fluorescence; details: 40 mg substrate in 400 ml Columbia medium, 24 hours at 37° C.; for Fluo.: fluorescence of the colonies: UV lamp at 365 nm; for Col.: color of the colonies: examined visually
Method: (§1) 40 mg of each of the substrates were dissolved in 4 ml of dimethylsulfoxide and added to 400 ml of previously autoclaved Columbia medium. The 5 media were distributed in Petri dishes 90 mm in diameter at the rate of 20 ml per dish. Seventeen strains of microorganisms obtained from collections and belonging to various species of bacteria and yeasts are inoculated as spots of about 10 000 colony forming units. The media are incubated for 24 hours at 37° C. and then the colonies formed are examined visually and under a UV lamp at 365 nm.

[2] = tested on: Listeria monocytogenes NCTC 11 994; design: key to Growth: NG: no growth; 0.5: low growth; 1: moderate growth; 2: good growth; key to Fluo.: fluorescence of the colonies / Col.: color of the colonies: —: no color/fluorescence; details: 40 mg substrate in 400 ml Columbia medium, 24 hours at 37° C.; for Fluo.: fluorescence of the colonies: UV lamp at 365 nm; for Col.: color of the colonies: examined visually
Method: as §1

[3] = tested on: Staphylococcus aureus NCTC 11 939; design: key to Growth: NG: no growth; 0.5: low growth; 1: moderate growth; 2: good growth; key to Fluo.: fluorescence of the colonies / Col.: color of the colonies: —: no color/fluorescence; details: 40 mg substrate in 400 ml Columbia medium, 24 hours at 37° C.; for Fluo.: fluorescence of the colonies: UV lamp at 365 nm; for Col.: color of the colonies: examined visually
Method: as §1

[4] = tested on: Candida albicans ATCC 90 028; design: key to Growth: NG: no growth; 0.5: low growth; 1: moderate growth; 2: good growth; key to Fluo.: fluorescence of the colonies / Col.: color of the colonies: —: no color/fluorescence; details: 40 mg substrate in 400 ml Columbia medium, 24 hours at 37° C.; for Fluo.: fluorescence of the colonies: UV lamp at 365 nm; for Col.: color of the colonies: examined visually
Method: as §1

[5] = tested on: Enterococcus faecalis NCTC 775; design: key to Growth: NG: no growth; 0.5: low growth; 1: moderate growth; 2: good growth; key to Fluo.: fluorescence of the colonies / Col.: color of the colonies: —: no color/fluorescence; details: 40 mg substrate in 400 ml Columbia medium, 24 hours at 37° C.; for Fluo.: fluorescence of the colonies: UV lamp at 365 nm; for Col.: color of the colonies: examined visually
Method: as §1

[6] = tested on: Candida glabrata NCPF 3 943; design: key to Growth: NG: no growth; 0.5: low growth; 1: moderate growth; 2: good growth; key to Fluo.: fluorescence of the colonies / Col.: color of the colonies: —: no color/fluorescence; details: 40 mg substrate in 400 ml Columbia medium, 24 hours at 37° C.; for Fluo.: fluorescence of the colonies: UV lamp at 365 nm; for Col.: color of the colonies: examined visually
Method: as §1

[7] = tested on: Providencia rettgeri NCTC 7 475; design: key to Growth: NG: no growth; 0.5: low growth; 1: moderate growth; 2: good growth; key to Fluo.: fluorescence of the colonies / Col.: color of the colonies: —: no color/fluorescence; details: 40 mg substrate in 400 ml Columbia medium, 24 hours at 37° C.; for Fluo.: fluorescence of the colonies: UV lamp at 365 nm; for Col.: color of the colonies: examined visually
Method: as §1

[8] = tested on: Bacillus subtilis NCTC 9 372; design: key to Growth: NG: no growth; 0.5: low growth; 1: moderate growth; 2: good growth; key to Fluo.: fluorescence of the colonies / Col.: color of the colonies: —: no color/fluorescence; details: 40 mg substrate in 400 ml Columbia medium, 24 hours at 37° C.; for Fluo.: fluorescence of the colonies: UV lamp at 365 nm; for Col.: color of the colonies: examined visually
Method: as §1

[9] = tested on: Salmonella typhimurium NCTC 74; design: key to Growth: NG: no growth; 0.5: low growth; 1: moderate growth; 2: good growth; key to Fluo.: fluorescence of the colonies / Col.: color of the colonies: —: no color/fluorescence; details: 40 mg substrate in 400 ml Columbia medium, 24 hours at 37° C.; for Fluo.: fluorescence of the colonies: UV lamp at 365 nm
Method: as §1

[10] = tested on: Yersinia enterocolitica NCTC 11 176; design: key to Growth: NG: no growth; 0.5: low growth; 1: moderate growth; 2: good growth; key to Fluo.: fluorescence of the colonies / Col.: color of the colonies: —: no color/fluorescence; details: 40 mg substrate in 400 ml Columbia medium, 24 hours at 37° C.; for Fluo.: fluorescence of the colonies: UV lamp at 365 nm; for Col.: color of the colonies: examined visually
Method: as §1

[11] = tested on: Staphylococcus aureus NCTC 6 571; design: key to Growth: NG: no growth; 0.5: low growth; 1: moderate growth; 2: good growth; key to Fluo.: fluorescence of the colonies / Col.: color of the colonies: —: no color/fluorescence; details: 40 mg substrate in 400 ml Columbia medium, 24 hours at 37° C.; for Fluo.: fluorescence of the colonies: UV lamp at 365 nm; for Col.: color of the colonies: examined visually
Method: as §1

[12] = tested on: Staphylococcus epidermidis NCTC 11 047; design: key to Growth: NG: no growth; 0.5: low growth; 1: moderate growth; 2: good growth; key to Fluo.: fluorescence of the colonies / Col.: color of the colonies: —: no color/fluorescence; details: 40 mg substrate in 400 ml Columbia medium, 24 hours at 37° C.; for Fluo.: fluorescence of the colonies: UV lamp at 365 nm; for Col.: color of the colonies: examined visually
Method: as §1

[13] = tested on: Enterococcus faecium NCTC 7 171; design: key to Growth: NG: no growth; 0.5: low growth; 1: moderate growth; 2: good growth; key to Fluo.: fluorescence of the colonies / Col.: color of the colonies: —: no color/fluorescence; details: 40 mg substrate in 400 ml Columbia medium, 24 hours at 37° C.; for Fluo.: fluorescence of the colonies: UV lamp at 365 nm; for Col.: color of the colonies: examined visually
Method: as §1

[14] = tested on: Pseudomonas aeruginosa NCTC 10 662; design: key to Growth: NG: no growth; 0.5: low growth; 1: moderate growth; 2: good growth; key to Fluo.: fluorescence of the colonies / Col.: color of the colonies: —: no color/fluorescence; details: 40 mg substrate in 400 ml Columbia medium, 24 hours at 37° C.; for Fluo.: fluorescence of the colonies: UV lamp at 365 nm; for Col.: color of the colonies: examined visually
Method: as §1

[15] = tested on: Serratia marcescens NCTC 10 211; design: key to Growth: NG: no growth; 0.5: low growth; 1: moderate growth; 2: good growth; key to Col.: color of the colonies: —: no color/fluorescence; details: 40 mg substrate in 400 ml Columbia medium, 24 hours at 37° C.
Method: as §1

[16] = tested on: Enterobacter cloacae NCTC 11 936; design: key to Growth: NG: no growth; 0.5: low growth; 1: moderate growth; 2: good growth; key to Col.: color of the colonies: —: no color/fluorescence; details: 40 mg substrate in 400 ml Columbia medium, 24 hours at 37° C.; for Col.: color of the colonies: examined visually
Method: as §1

[17] = tested on: Escherichia coli NCTC 10 418; design: key to Growth: NG: no growth; 0.5: low growth; 1: moderate growth; 2: good growth; key to Col.: color of the colonies: —: no color/fluorescence; details: 40 mg substrate in 400 ml Columbia medium, 24 hours at 37° C.
Method: as §1

## O=[N+]([O-])c1ccc(C=Cc2ccc3ccccc3n2)cc1 [2NSQ, 2-(4′-nitrostyryl)quinoline]
[1]
  Growth: 1
  Fluo.: fluorescence of the colonies: —
  Col.: color of the colonies: —
[2]
  Growth: 1
  Fluo.: fluorescence of the colonies: —
  Col.: color of the colonies: —
[3]
  Growth: 1
  Fluo.: fluorescence of the colonies: —
  Col.: color of the colonies: —
[4]
  Growth: 0.5
  Fluo.: fluorescence of the colonies: —
  Col.: color of the colonies: —
[5]
  Growth: 1
  Fluo.: fluorescence of the colonies: —
  Col.: color of the colonies: —
[6]
  Growth: 1
  Fluo.: fluorescence of the colonies: —
  Col.: color of the colonies: —
[7]
  Growth: 2
  Fluo.: fluorescence of the colonies: —
  Col.: color of the colonies: —
[8]
  Growth: 1
  Fluo.: fluorescence of the colonies: —
  Col.: color of the colonies: —
[9]
  Growth: 2
  Fluo.: fluorescence of the colonies: —
[9]; examined visually
  Col.: color of the colonies: —
[10]
  Growth: 2
  Fluo.: fluorescence of the colonies: —
  Col.: color of the colonies: —
[11]
  Growth: 1
  Fluo.: fluorescence of the colonies: —
  Col.: color of the colonies: —
[12]
  Growth: 1
  Fluo.: fluorescence of the colonies: —
  Col.: color of the colonies: —
[13]
  Growth: 1
  Fluo.: fluorescence of the colonies: —
  Col.: color of the colonies: —
[14]
  Growth: 2
  Fluo.: fluorescence of the colonies: —
  Col.: color of the colonies: —
[15]
  Growth: 2
[15]; examined visually
  Col.: color of the colonies: —
[16]
  Growth: 2
  Col.: color of the colonies: —
[17]
  Growth: 2
[17]; examined visually
  Col.: color of the colonies: —

## C[n+]1ccc(C=Cc2ccc([N+](=O)[O-])cc2)c2ccccc21.[I-] [4NSMQ^+I, 4-(4′-nitrostyryl)-N-methylquinolinium iodide]
[1]
  Growth: NG
  Fluo.: fluorescence of the colonies: —
  Col.: color of the colonies: —
[2]
  Growth: 1
  Fluo.: fluorescence of the colonies: —
  Col.: color of the colonies: Rust
[3]
  Growth: NG
  Fluo.: fluorescence of the colonies: —
  Col.: color of the colonies: —
[4]
  Growth: NG
  Fluo.: fluorescence of the colonies: —
  Col.: color of the colonies: —
[5]
  Growth: 1
  Fluo.: fluorescence of the colonies: —
  Col.: color of the colonies: Rust
[6]
  Growth: 0.5
  Fluo.: fluorescence of the colonies: —
  Col.: color of the colonies: —
[7]
  Growth: 2
  Fluo.: fluorescence of the colonies: —
  Col.: color of the colonies: Rust e
[8]
  Growth: NG
  Fluo.: fluorescence of the colonies: —
  Col.: color of the colonies: —
[9]
  Growth: 1
  Fluo.: fluorescence of the colonies: —
[10]
  Growth: 1
  Fluo.: fluorescence of the colonies: —
  Col.: color of the colonies: Rust
[11]
  Growth: NG
  Fluo.: fluorescence of the colonies: —
  Col.: color of the colonies: —
[12]
  Growth: 1
  Fluo.: fluorescence of the colonies: —
  Col.: color of the colonies: —
[13]
  Growth: 1
  Fluo.: fluorescence of the colonies: —
  Col.: color of the colonies: Rust
[14]
  Growth: 2
  Fluo.: fluorescence of the colonies: —
[15]
  Growth: 2
[16]
  Growth: 2
  Col.: color of the colonies: Rust
[17]
  Growth: 2

## 2-(4′-nitrophenyl)butadienyl-N-methylquinolinium iodide [2NPBMQ^+I]
[1]
  Growth: 0.5
  Col.: color of the colonies: —
[2]
  Growth: 1
[3]
  Growth: NG
  Col.: color of the colonies: —
[4]
  Growth: NG
  Col.: color of the colonies: —
[5]
  Growth: 1
[6]
  Growth: NG
  Col.: color of the colonies: —
[7]
  Growth: 2
  Col.: color of the colonies: Orange
[8]
  Growth: 0.5
  Col.: color of the colonies: —
[9]
  Growth: 1
[10]
  Growth: 1
[11]
  Growth: NG
  Col.: color of the colonies: —
[12]
  Growth: 1
  Col.: color of the colonies: —
[13]
  Growth: 1
[14]
  Growth: 2
  Col.: color of the colonies: Orange
[15]
  Growth: 2
[16]
  Growth: 2
  Col.: color of the colonies: Orange
[17]
  Growth: 2
